The text below walks through data of PubChem BioAssay (NCI).

Common to all, as to assay: NCI tumour cell line growth inhibition, 48 h
The subject of assay [1] is NCI-H226 lung.
Assay [2] deals with PC-3 prostate.
Assay [3] concerns 786-0 renal.
Assay [4] relates to HS 578T breast.
The subject of assay [5] is A498 renal.
The test system of assay [6] is SK-MEL-28 melanoma.
Assay [7] relates to T-47D breast.
Assay [8] concerns SNB-75 CNS.
Assay [9] has as its system OVCAR-4 ovarian.
In assay [10] the test system is EKVX NSCLC.

The structures appear in SMILES notation.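 Step 1: Grow cells in 96-well plates. Step 2: Expose to compound for 48 hours at 5 concentrations. Step 3: Interpolate endpoints linearly; if unreached, use highest concentration. The concentration for 50% growth inhibition is given as GI50. The concentration for full growth arrest is given as TGI.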 Bounds are passed on as bounds.

On to `COC(=O)C1(F)C(=O)NC(=O)NC1O` (stereo not given), for which the TGI in [1], in assay [2], in assay [3], in assay [4], in assay [5] and in [6] was more than 100 µM throughout. For the same compound, the TGI in assay [7], in [8], in assay [9] and in [10] was more than 100 µM throughout.
`Cc1cc(Cc2cc(C)cc(C(C)(C)C)c2O)c(O)c(C(C)(C)C)c1`: the GI50 is 14.2 µM in assay [1]; 5.15 µM in assay [2]; 11 µM in assay [3]; 11.2 µM in assay [4]; 12.9 µM in [5]; 12.9 µM in assay [6]. The GI50 in [7] was 4.7 µM; in assay [8], 11.9 µM; in assay [9] it was 11.6 µM; in assay [10] it was 2.81 µM. Besides, the TGI in assay [1] was found to be 30 µM; in [2], 18.6 µM; in assay [3], 23 µM; in [4], 29.2 µM; in assay [5] it was 25.5 µM; in [6] it was 25.6 µM. Further, the TGI was 16.8 µM in assay [7], 24.3 µM in assay [8], 23.9 µM in assay [9] and 12.1 µM in assay [10].
With `COc1ccc(Cl)cc1NC(=O)C(Br)C(Br)C(=O)O` (stereo not given), the GI50 is 13.7 µM in assay [1]; 13.4 µM in [2]; 21.7 µM in [3]; 43.9 µM in [4]; 27.5 µM in assay [5]; 7.69 µM in [6]. Moreover, the GI50 in [7] is 3.27 µM; in [8], 26.6 µM; in assay [9] it was 6.36 µM; in [10], 21.9 µM. The TGI was 35.9 µM in assay [1]; more than 100 µM in [2]; 47.7 µM in assay [3]; more than 100 µM in [4]; 73.2 µM in assay [5]; more than 49.2 µM in assay [6]. Further, the TGI was 14.3 µM in [7], more than 60.1 µM in assay [8], 60.6 µM in [9] and more than 100 µM in assay [10].
Consider `Cc1c2c[n+](C(C)C)ccc2c(C)c2c1[nH]c1ccccc12`, for which the GI50 in assay [1] is 4.32 µM; in [2], 2.59 µM; in assay [3] it was 1.53 µM; in [4] it was 1.13 µM; in assay [5], 1.94 µM; in assay [6], 2.25 µM. In addition, the GI50 is 1.48 µM in assay [7], 1.34 µM in [8], 2.61 µM in [9] and 3.51 µM in assay [10]. In addition, the TGI in assay [1] was 41.5 µM; in assay [2] it was 40.6 µM; in [3], more than 100 µM; in assay [4], 19 µM; in assay [5], 64 µM; in assay [6], 12.9 µM. The TGI was 6.64 µM in assay [7], 40.9 µM in assay [8], 15.4 µM in [9] and 53.9 µM in assay [10].
For the compound `CC(C)NC(=O)OCc1c(COC(=O)NC(C)C)c(-c2ccc(Cl)cc2)n2c1CCC2`, the GI50 in assay [1] is 2.31 µM; in [2], 3.32 µM; in [3] it was 2.75 µM; in assay [4] it was 2.91 µM; in [5], 1.92 µM; in [6], 7.52 µM. Further, the GI50 in assay [7] is 3.9 µM; in assay [8] it was 1.7 µM; in assay [9], 2.7 µM; in [10] it was 4.09 µM. For the same compound, the TGI in assay [1] is 11.3 µM; in [2], 25.2 µM; in [3], 8.68 µM; in assay [4], 11.8 µM; in assay [5], 4.46 µM; in assay [6], 22.2 µM. For the same compound, the TGI amounted to 20.9 µM in assay [7], 8.44 µM in assay [8], 14.3 µM in [9] and 32.9 µM in assay [10].
As to `O=C1c2c(nc3ccccc3c2-c2ccccc2)CN1Nc1ccccn1`, the TGI in assay [1] was more than 89 µM; in [2], more than 100 µM; in assay [3] it was more than 93.1 µM; in assay [4] it was 67.4 µM; in assay [5], 18.1 µM; in assay [6], more than 100 µM. Besides, the TGI in assay [7] was more than 100 µM; in [8], more than 92.8 µM; in assay [9], more than 100 µM; in [10], more than 100 µM.
Consider `CSc1ccc2c3c(n(C[C@H](O)CO)c(=O)c2c1)-c1ccccc1C3=O`, for which the GI50 in assay [1] is 1.86 µM; in [2] it was 3.42 µM; in assay [3], 2.52 µM; in assay [4], 15.8 µM; in assay [5], 2.57 µM; in [6], 4.46 µM. Also, the GI50 is 2.85 µM in assay [7], 12.5 µM in assay [8], 6.38 µM in assay [9] and 3.89 µM in [10]. In addition, the TGI is 5.31 µM in [1]; more than 100 µM in assay [2]; 9.22 µM in assay [3]; 78.8 µM in assay [4]; 12.6 µM in assay [5]; 48.8 µM in assay [6]. Also, the TGI in [7] was 45.8 µM; in assay [8], more than 100 µM; in [9], more than 100 µM; in assay [10], 88 µM.
For the compound `O=C(O)c1ccc(N/C=C2\C(=O)c3ccccc3OC2O)cc1O` (stereo not given), the GI50 in assay [1] was 46.5 µg/mL; in assay [2], 31.6 µg/mL; in assay [3] it was 28.5 µg/mL; in assay [4], 11.2 µg/mL; in assay [5], 36.9 µg/mL; in assay [6], 25.1 µg/mL. Moreover, the GI50 in [7] is 6.18 µg/mL; in assay [8] it was 17.7 µg/mL; in [9], 20.6 µg/mL; in assay [10], 23.9 µg/mL. Besides, the TGI in assay [1] was more than 150 µg/mL; in assay [2], 107 µg/mL; in assay [3], 52.3 µg/mL; in assay [4] it was 76.5 µg/mL; in assay [5], 83.9 µg/mL; in [6], 69.2 µg/mL. Moreover, the TGI was 50.3 µg/mL in [7], 84.3 µg/mL in assay [8], more than 150 µg/mL in assay [9] and 82.5 µg/mL in assay [10].
